# Measurements: patent US10888576B2, “Composition of HMB and ATP and methods of use” (Metabolic Technologies, Inc., priority 2018, dated 2021)
# How the values were obtained:
# Type in all cases: in vivo, human
# [1] = test system: free testosterone; assay: Serum free testosterone ELISA; settings: for effect on free testosterone: main effect; for Free Testosterone: Mean ± SEM
# Method: (§1) Prior to the study, participants were randomly assigned to receive either 3 g per day of HMB Free Acid (HMB) (combined with food-grade orange flavors and sweeteners), 400 mg per day of ATP (PEAK ATP®; TSI, Inc.), a combination of both 3 g of HMB and 400 mg per day of ATP, or a placebo (food-grade orange flavors and sweeteners) divided equally into three servings daily with the first serving given 30 minutes prior to exercise and the remaining two servings daily with the mid-day and evening meals. On the non-training days participants were instructed to consume one serving with each of three separate meals. The supplementation was continued daily throughout the training and testing protocols. Each serving was formulated with 1 gram of HMB free acid to account for fill and emptying variation and achieve a minimum effective dosage of 0.800 grams. This dosage would be equivalent to a 1 gram Ca-HMB dosage.
# (§2) All blood draws throughout the study were obtained via venipuncture after a 12-hour fast by a trained phlebotomist. Whole blood was collected and transferred into appropriate tubes for obtaining serum and plasma and centrifuged at 1,500 g for 15 min at 4° C. Resulting serum and plasma were then aliquoted and stored at −80° C. until subsequent analyses.
# (§3) Samples were thawed one time and analyzed in duplicate for each analyte. All blood draws were scheduled at the same time of day to negate confounding influences of diurnal hormonal variations. Serum total and free testosterone, cortisol, and C-reactive protein (CRP) were assayed via ELISA kits obtained from Diagnostic Systems Laboratories (Webster, Tex.). All hormones were measured in the same assay on the same day to avoid compounded interassay variance. […] Serum creatine kinase (CK) was measured using colorimetric procedures at 340 nm (Diagnostics Chemicals, Oxford, Conn.). Twenty-four hour urine collections were made and 3-methylhistine was determined by previously described methods (Rathmacher et al 1992 and Wilson et al, 2013).
# [2] = test system: total testosterone; assay: Serum total testosterone ELISA; settings: for effect on total testosterone: main effect; for Total Testosterone: Mean ± SEM
# Method: as §1, §2, §3
# [3] = test system: cortisol; assay: Serum cortisol ELISA; settings: for effect on cortisol levels: during the study, vs placebo; for Cortisol: Mean ± SEM
# Method: as §1, §2, §3
# [4] = test system: creatine kinase (CK); assay: Serum creatine kinase (muscle damage), colorimetric; settings: for effect on training-induced increase in CK: compared with placebo, initiation of training and overreaching cycle; for CK: Mean ± SEM
# Method: as §1, §2, §3
# [5] = test system: C-reactive protein (CRP); assay: Serum C-reactive protein ELISA; settings: Mean ± SEM
# Method: as §1, §2, §3
# [6] = test system: resistance-trained males; assay: Muscle strength: 1RM of back squat, bench press and deadlift (total strength); settings: for change in total strength during the overreaching cycle: from week 8 to week 10; for total strength gains: over the 12-week study, 1-RM of squat, bench press, deadlift
# Method: After familiarization with procedures, muscle strength was assessed via 1RM testing of the back squat, bench press, and […]. Each lift was performed as described by the International Powerlifting Federation rules (44). Body composition (lean body mass, fat mass, and total mass) was determined by dual x-ray absorptiometry (DXA; Lunar Prodigy enCORE 2008, Madison, Wis., U.S.A.). Skeletal muscle hypertrophy was determined via the combined changes in ultrasonography-determined muscle thickness of the vastus lateralis (VL) and vastus intermedius (VI) muscles. The intraclass correlation coefficient (ICC) for the test-retest of muscle thickness measurements was r=0.97. Prior to the study, participants were randomly assigned to receive either 3 g per day of HMB Free Acid (HMB) (combined with food-grade orange flavors and sweeteners), 400 mg per day of ATP (PEAK ATP®; TSI, Inc.), a combination of both 3 g of HMB and 400 mg per day of ATP, or a placebo (food-grade orange flavors and sweeteners) divided equally into three servings daily with the first serving given 30 minutes prior to exercise and the remaining two servings daily with the mid-day and evening meals. On the non-training days participants were instructed to consume one serving with each of three separate meals. The supplementation was continued daily throughout the training and testing protocols. […] This dosage would be equivalent to a 1 gram Ca-HMB dosage. All participants performed a high volume resistance training protocol during the 12-week study. The phases of the study and measurements taken are shown in FIG. 1, and the exercise protocols for each phase of the study are shown in Tables 1 to 3. The training was divided into 3 phases, with Phase 1 consisting of daily undulating periodization (weeks 1 to 8), Phase 2 consisting of the overreaching cycle (weeks 9 and 10), and Phase 3 consisting of the taper cycle (weeks 11 and 12).
smiles,measurement,setting,value
"Nc1ncnc2c1ncn2[C@@H]1O[C@H](COP(=O)(O)OP(=O)(O)OP(=O)(O)O)[C@@H](O)[C@H]1O [ATP, Adenosine-5′-triphosphate]",effect on free testosterone,[1],no main effect differences
same,Free Testosterone,[1]; week 0 (baseline),112 ± 13 ng/dL
same,Free Testosterone,[1]; week 1,114 ± 9 ng/dL
same,Free Testosterone,[1]; week 4,118 ± 6 ng/dL
same,Free Testosterone,[1]; week 8,117 ± 11 ng/dL
same,Free Testosterone,[1]; week 9 (overreaching),108 ± 7 ng/dL
same,Free Testosterone,[1]; week 10 (overreaching),110 ± 10 ng/dL
same,Free Testosterone,[1]; week 12,125 ± 13 ng/dL
same,effect on total testosterone,[2],no main effect differences
same,Total Testosterone,[2]; week 0 (baseline),660 ± 67 ng/dL
same,Total Testosterone,[2]; week 1,645 ± 54 ng/dL
same,Total Testosterone,[2]; week 4,695 ± 60 ng/dL
same,Total Testosterone,[2]; week 8,645 ± 60 ng/dL
same,Total Testosterone,[2]; week 9 (overreaching),621 ± 49 ng/dL
same,Total Testosterone,[2]; week 10 (overreaching),592 ± 84 ng/dL
same,Total Testosterone,[2]; week 12,673 ± 69 ng/dL
same,effect on cortisol levels,[3],did not affect cortisol levels
same,Cortisol,[3]; week 0 (baseline),20.9 ± 1.2 µg/dL
same,Cortisol,[3]; week 1,20.5 ± 1.3 µg/dL
same,Cortisol,[3]; week 4,18.4 ± 1.4 µg/dL
same,Cortisol,[3]; week 8,19.0 ± 0.4 µg/dL
same,Cortisol,[3]; week 9 (overreaching),21.5 ± 0.4 µg/dL
same,Cortisol,[3]; week 10 (overreaching),22.6 ± 0.2 µg/dL
same,Cortisol,[3]; week 12,19.7 ± 0.6 µg/dL
same,effect on training-induced increase in CK,[4],did not attenuate the increases in CK
same,CK,[4]; week 0 (baseline),145 ± 8 IU/L
same,CK,[4]; week 1,500 ± 71 IU/L
same,CK,[4]; week 4,324 ± 14 IU/L
same,CK,[4]; week 8,234 ± 32 IU/L
same,CK,[4]; week 9 (overreaching),426 ± 44 IU/L
same,CK,[4]; week 10 (overreaching),449 ± 62 IU/L
same,CK,[4]; week 12,160 ± 20 IU/L
same,CRP,[5]; week 0 (baseline),1.4 ± 0.4 mg/L
same,CRP,[5]; week 1,1.1 ± 0.1 mg/L
same,CRP,[5]; week 4,1.2 ± 0.2 mg/L
same,CRP,[5]; week 8,1.9 ± 0.6 mg/L
same,CRP,[5]; week 9 (overreaching),1.7 ± 0.6 mg/L
same,CRP,[5]; week 10 (overreaching),1.1 ± 0.1 mg/L
same,CRP,[5]; week 12,1.2 ± 0.2 mg/L
same,change in total strength during the overreaching cycle,[6],−2.±0.5%
same,total strength gains,[6],55.3 ± 6.0 kg
"CC(C)(O)CC(=O)O [HMB-FA, β-hydroxy-β-methylbutyric acid]",effect on free testosterone,[1],no main effect differences
same,Free Testosterone,[1]; week 0 (baseline),109 ± 10 ng/dL
same,Free Testosterone,[1]; week 1,104 ± 8 ng/dL
same,Free Testosterone,[1]; week 4,116 ± 11 ng/dL
same,Free Testosterone,[1]; week 8,115 ± 9 ng/dL
same,Free Testosterone,[1]; week 9 (overreaching),118 ± 8 ng/dL
same,Free Testosterone,[1]; week 10 (overreaching),116 ± 8 ng/dL
same,Free Testosterone,[1]; week 12,127 ± 8 ng/dL
same,effect on total testosterone,[2],no main effect differences
same,Total Testosterone,[2]; week 0 (baseline),708 ± 35 ng/dL
same,Total Testosterone,[2]; week 1,708 ± 48 ng/dL
same,Total Testosterone,[2]; week 4,730 ± 63 ng/dL
same,Total Testosterone,[2]; week 8,652 ± 35 ng/dL
same,Total Testosterone,[2]; week 9 (overreaching),752 ± 61 ng/dL
same,Total Testosterone,[2]; week 10 (overreaching),701 ± 34 ng/dL
same,Total Testosterone,[2]; week 12,728 ± 39 ng/dL
same,effect on cortisol levels,[3],decreased cortisol levels
same,Cortisol,[3]; week 0 (baseline),21.5 ± 1.4 µg/dL
same,Cortisol,[3]; week 1,20.3 ± 1.2 µg/dL
same,Cortisol,[3]; week 4,20.9 ± 1.0 µg/dL
same,Cortisol,[3]; week 8,18.8 ± 1.5 µg/dL
same,Cortisol,[3]; week 9 (overreaching),19.6 ± 1.1 µg/dL
same,Cortisol,[3]; week 10 (overreaching),18.6 ± 1.2 µg/dL
same,Cortisol,[3]; week 12,17.4 ± 1.2 µg/dL
same,effect on training-induced increase in CK,[4],significantly attenuated the increase in CK
same,CK,[4]; week 0 (baseline),158 ± 16 IU/L
same,CK,[4]; week 1,322 ± 35 IU/L
same,CK,[4]; week 4,280 ± 22 IU/L
same,CK,[4]; week 8,255 ± 28 IU/L
same,CK,[4]; week 9 (overreaching),288 ± 18 IU/L
same,CK,[4]; week 10 (overreaching),250 ± 14 IU/L
same,CK,[4]; week 12,147 ± 15 IU/L
same,CRP,[5]; week 0 (baseline),1.0 ± 0.1 mg/L
same,CRP,[5]; week 1,1.3 ± 0.3 mg/L
same,CRP,[5]; week 4,1.0 ± 0.1 mg/L
same,CRP,[5]; week 8,0.9 ± 0.01 mg/L
same,CRP,[5]; week 9 (overreaching),1.0 ± 0.1 mg/L
same,CRP,[5]; week 10 (overreaching),1.8 ± 0.8 mg/L
same,CRP,[5]; week 12,1.1 ± 0.1 mg/L
same,change in total strength during the overreaching cycle,[6],−0.5±1.2%
same,total strength gains,[6],77.1 ± 5.6 kg
